Laboratory results as given in patent publication US20160038468A1 (priority 2013, published 2016).
Converted amounts (≈) assume the structure as drawn. Like-named read-outs stand apart in the source and are kept apart here.

Assays:
Format in all cases: cell-based
Peptoniphilus lacrimalis = assay: Agar dilution MIC (CLSI), Peptoniphilus lacrimalis vaginal isolates; settings: for Number of strains with indicated MIC: 20 samples; for MIC: read-out: Minimal Inhibitory Concentration (MIC)
Peptoniphilus harei = assay: Agar dilution MIC (CLSI), Peptoniphilus harei vaginal isolates; settings: for Number of strains with indicated MIC: 23 samples; for MIC: read-out: Minimal Inhibitory Concentration (MIC)
Prevotella bivia = assay: Agar dilution MIC (CLSI), Prevotella bivia vaginal isolates; settings: for MIC: Prevotella bivia, read-out: Minimal Inhibitory Concentration (MIC)
[1] = Peptoniphilus lacrimalis, # tested 20
[2] = Peptoniphilus harei, # tested 23

CO[C@H]1/C=C/O[C@@]2(C)Oc3c(C)c(O)c4c(O)c(c5c(nc6cc(C)ccn65)c4c3C2=O)NC(=O)/C(C)=C\C=C\[C@H](C)[C@H](O)[C@@H](C)[C@@H](O)[C@@H](C)[C@H](OC(C)=O)[C@@H]1C [Rifaximin]
MIC Range (Peptoniphilus lacrimalis; # tested 20): 0.00375 to 0.03 mg/L | Number of strains with indicated MIC (Peptoniphilus lacrimalis; MIC 0.00375 μg/ml): 2 | Number of strains with indicated MIC (Peptoniphilus lacrimalis; MIC 0.0075 μg/ml): 5 | Number of strains with indicated MIC (Peptoniphilus lacrimalis; MIC 0.015 μg/ml): 12 | Number of strains with indicated MIC (Peptoniphilus lacrimalis; MIC 0.03 μg/ml): 1 | MIC (Peptoniphilus lacrimalis; Peptoniphilus lacrimalis, isolate 601028V 27A): 0.015 mg/L (≈ 0.0191 µM) | MIC (Peptoniphilus lacrimalis; Peptoniphilus lacrimalis, isolate 601060V 32A): 0.015 mg/L (≈ 0.0191 µM) | MIC (Peptoniphilus lacrimalis; Peptoniphilus lacrimalis, isolate 601078V O): 0.015 mg/L (≈ 0.0191 µM) | MIC (Peptoniphilus lacrimalis; Peptoniphilus lacrimalis, isolate 601084V c): 0.015 mg/L (≈ 0.0191 µM) | MIC (Peptoniphilus lacrimalis; Peptoniphilus lacrimalis, isolate 601105V 13): 0.015 mg/L (≈ 0.0191 µM) | MIC (Peptoniphilus lacrimalis; Peptoniphilus lacrimalis, isolate 601139V 17): 0.015 mg/L (≈ 0.0191 µM) | MIC (Peptoniphilus lacrimalis; Peptoniphilus lacrimalis, isolate 601213V 17): 0.015 mg/L (≈ 0.0191 µM) | MIC (Peptoniphilus lacrimalis; Peptoniphilus lacrimalis, isolate 601255V 12): 0.015 mg/L (≈ 0.0191 µM) | MIC (Peptoniphilus lacrimalis; Peptoniphilus lacrimalis, isolate 601261V O): 0.015 mg/L (≈ 0.0191 µM) | MIC (Peptoniphilus lacrimalis; Peptoniphilus lacrimalis, isolate 601293V 15): 0.03 mg/L (≈ 0.0382 µM) | MIC (Peptoniphilus lacrimalis; Peptoniphilus lacrimalis, isolate 601296V N): 0.015 mg/L (≈ 0.0191 µM) | MIC (Peptoniphilus lacrimalis; Peptoniphilus lacrimalis, isolate 601305V K-1): 0.0075 mg/L (≈ 0.00954 µM) | MIC (Peptoniphilus lacrimalis; Peptoniphilus lacrimalis, isolate 601318V E): 0.0075 mg/L (≈ 0.00954 µM) | MIC (Peptoniphilus lacrimalis; Peptoniphilus lacrimalis, isolate 601330V H): 0.015 mg/L (≈ 0.0191 µM) | MIC (Peptoniphilus lacrimalis; Peptoniphilus lacrimalis, isolate 601336V 47): 0.015 mg/L (≈ 0.0191 µM) | MIC (Peptoniphilus lacrimalis; Peptoniphilus lacrimalis, isolate 601365V 13): 0.0075 mg/L (≈ 0.00954 µM) | MIC (Peptoniphilus lacrimalis; Peptoniphilus lacrimalis, isolate 601368V 39): 0.0075 mg/L (≈ 0.00954 µM) | MIC (Peptoniphilus lacrimalis; Peptoniphilus lacrimalis, isolate 601375V E): 0.0075 mg/L (≈ 0.00954 µM) | MIC (Peptoniphilus lacrimalis; Peptoniphilus lacrimalis, isolate 601388V B): 0.00375 mg/L (≈ 0.00477 µM) | MIC (Peptoniphilus lacrimalis; Peptoniphilus lacrimalis, isolate 601401V I): 0.00375 mg/L (≈ 0.00477 µM) | MIC50 (Peptoniphilus lacrimalis; [1]): 0.015 mg/L (≈ 0.0191 µM) | MIC90 (Peptoniphilus lacrimalis; [1]): 0.015 mg/L (≈ 0.0191 µM) | MIC Range (Peptoniphilus harei; # tested 23): 0.00375 to 0.03 mg/L | Number of strains with indicated MIC (Peptoniphilus harei; MIC 0.00375 μg/ml): 1 | Number of strains with indicated MIC (Peptoniphilus harei; MIC 0.0075 μg/ml): 15 | Number of strains with indicated MIC (Peptoniphilus harei; MIC 0.015 μg/ml): 6 | Number of strains with indicated MIC (Peptoniphilus harei; MIC 0.03 μg/ml): 1 | MIC (Peptoniphilus harei; Peptoniphilus harei, isolate 426868V D): 0.0075 mg/L (≈ 0.00954 µM) | MIC (Peptoniphilus harei; Peptoniphilus harei, isolate 601098V Q): 0.0075 mg/L (≈ 0.00954 µM) | MIC (Peptoniphilus harei; Peptoniphilus harei, isolate 601203V 8): 0.0075 mg/L (≈ 0.00954 µM) | MIC (Peptoniphilus harei; Peptoniphilus harei, isolate 601212V 15): 0.0075 mg/L (≈ 0.00954 µM) | MIC (Peptoniphilus harei; Peptoniphilus harei, isolate 601233V R): 0.03 mg/L (≈ 0.0382 µM) | MIC (Peptoniphilus harei; Peptoniphilus harei, isolate 601248V 23): 0.0075 mg/L (≈ 0.00954 µM) | MIC (Peptoniphilus harei; Peptoniphilus harei, isolate 601259V 11): 0.015 mg/L (≈ 0.0191 µM) | MIC (Peptoniphilus harei; Peptoniphilus harei, isolate 601289V C): 0.0075 mg/L (≈ 0.00954 µM) | MIC (Peptoniphilus harei; Peptoniphilus harei, isolate 601293V 21): 0.0075 mg/L (≈ 0.00954 µM) | MIC (Peptoniphilus harei; Peptoniphilus harei, isolate 601302V F1): 0.015 mg/L (≈ 0.0191 µM) | MIC (Peptoniphilus harei; Peptoniphilus harei, isolate 601311V R): 0.00375 mg/L (≈ 0.00477 µM) | MIC (Peptoniphilus harei; Peptoniphilus harei, isolate 601326V F): 0.015 mg/L (≈ 0.0191 µM) | MIC (Peptoniphilus harei; Peptoniphilus harei, isolate 601342V F): 0.0075 mg/L (≈ 0.00954 µM) | MIC (Peptoniphilus harei; Peptoniphilus harei, isolate 601355V D): 0.015 mg/L (≈ 0.0191 µM) | MIC (Peptoniphilus harei; Peptoniphilus harei, isolate 601365V 14): 0.0075 mg/L (≈ 0.00954 µM) | MIC (Peptoniphilus harei; Peptoniphilus harei, isolate 601374V F): 0.015 mg/L (≈ 0.0191 µM) | MIC (Peptoniphilus harei; Peptoniphilus harei, isolate 601388V Q): 0.0075 mg/L (≈ 0.00954 µM) | MIC (Peptoniphilus harei; Peptoniphilus harei, isolate 601399V 16): 0.0075 mg/L (≈ 0.00954 µM) | MIC (Peptoniphilus harei; Peptoniphilus harei, isolate 601409V L): 0.0075 mg/L (≈ 0.00954 µM) | MIC (Peptoniphilus harei; Peptoniphilus harei, isolate 601413V 16): 0.0075 mg/L (≈ 0.00954 µM) | MIC (Peptoniphilus harei; Peptoniphilus harei, isolate 601426V D): 0.0075 mg/L (≈ 0.00954 µM) | MIC (Peptoniphilus harei; Peptoniphilus harei, isolate 601430V 22): 0.015 mg/L (≈ 0.0191 µM) | MIC (Peptoniphilus harei; Peptoniphilus harei, isolate 601539V 25B): 0.0075 mg/L (≈ 0.00954 µM) | MIC50 (Peptoniphilus harei; [2]): 0.0075 mg/L (≈ 0.00954 µM) | MIC90 (Peptoniphilus harei; [2]): 0.015 mg/L (≈ 0.0191 µM) | MIC Range (Prevotella bivia; # tested 34): 0.125 to 1 mg/L | MIC (Prevotella bivia; isolate 601096 25): 0.125 mg/L (≈ 0.159 µM) | MIC (Prevotella bivia; isolate 601166 M): 0.125 mg/L (≈ 0.159 µM) | MIC (Prevotella bivia; isolate 601202 21): 0.5 mg/L (≈ 0.636 µM) | MIC (Prevotella bivia; isolate 601203 5): 0.125 mg/L (≈ 0.159 µM) | MIC (Prevotella bivia; isolate 601209 A1): 0.125 mg/L (≈ 0.159 µM) | MIC (Prevotella bivia; isolate 601212 9): 0.125 mg/L (≈ 0.159 µM) | MIC (Prevotella bivia; isolate 601213 9A): 0.25 mg/L (≈ 0.318 µM) | MIC (Prevotella bivia; isolate 601214 B): 0.25 mg/L (≈ 0.318 µM) | MIC (Prevotella bivia; isolate 601241 13): 0.125 mg/L (≈ 0.159 µM) | MIC (Prevotella bivia; isolate 601243 15): 0.125 mg/L (≈ 0.159 µM) | MIC (Prevotella bivia; isolate 601255 10): 0.25 mg/L (≈ 0.318 µM) | MIC (Prevotella bivia; isolate 601261 C): 0.25 mg/L (≈ 0.318 µM) | MIC (Prevotella bivia; isolate 601283 20): 0.25 mg/L (≈ 0.318 µM) | MIC (Prevotella bivia; isolate 601285 14): 0.125 mg/L (≈ 0.159 µM) | MIC (Prevotella bivia; isolate 601293 22): 0.25 mg/L (≈ 0.318 µM) | MIC (Prevotella bivia; isolate 601305 H): 0.125 mg/L (≈ 0.159 µM) | MIC (Prevotella bivia; isolate 601340 31): 0.25 mg/L (≈ 0.318 µM) | MIC (Prevotella bivia; isolate 601355 B): 1 mg/L (≈ 1.27 µM) | MIC (Prevotella bivia; isolate 601367 M): 0.5 mg/L (≈ 0.636 µM) | MIC (Prevotella bivia; isolate 601374 A1): 0.25 mg/L (≈ 0.318 µM) | MIC (Prevotella bivia; isolate 601378 B): 0.25 mg/L (≈ 0.318 µM) | MIC (Prevotella bivia; isolate 601379 19): 0.25 mg/L (≈ 0.318 µM) | MIC (Prevotella bivia; isolate 601388 T): 0.25 mg/L (≈ 0.318 µM) | MIC (Prevotella bivia; isolate 601389 10): 0.25 mg/L (≈ 0.318 µM) | MIC (Prevotella bivia; isolate 601389 J): 0.25 mg/L (≈ 0.318 µM) | MIC (Prevotella bivia; isolate 601392 14): 0.125 mg/L (≈ 0.159 µM) | MIC (Prevotella bivia; isolate 601409 V): 0.25 mg/L (≈ 0.318 µM) | MIC (Prevotella bivia; isolate 601410 12): 0.25 mg/L (≈ 0.318 µM) | MIC (Prevotella bivia; isolate 601429 1): 0.25 mg/L (≈ 0.318 µM)
